Columns and labels:
MCT4 [1] = molecular target: T1, MCT4 (Homo sapiens, UniProt O15427); assay: cell-based
T1 sequence (O15427 1-465): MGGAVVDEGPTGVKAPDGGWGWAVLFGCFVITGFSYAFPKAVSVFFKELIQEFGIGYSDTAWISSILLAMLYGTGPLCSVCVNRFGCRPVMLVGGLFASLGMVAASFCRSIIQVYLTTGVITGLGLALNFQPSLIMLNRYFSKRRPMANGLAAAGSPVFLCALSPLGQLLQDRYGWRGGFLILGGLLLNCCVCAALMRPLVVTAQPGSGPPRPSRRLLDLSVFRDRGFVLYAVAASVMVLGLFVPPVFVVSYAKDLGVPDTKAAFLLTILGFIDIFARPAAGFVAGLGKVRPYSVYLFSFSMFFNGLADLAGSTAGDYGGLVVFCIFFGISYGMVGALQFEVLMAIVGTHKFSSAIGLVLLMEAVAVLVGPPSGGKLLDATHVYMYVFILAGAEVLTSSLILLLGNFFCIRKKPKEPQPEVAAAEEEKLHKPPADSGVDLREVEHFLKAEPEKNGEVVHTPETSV
Method: Cells were loaded with the pH sensitive dye BCECFAM(Invitrogen #B11150) before being washed to remove excess dye and seeded into the assay plates—directly onto the test compound—at a density of 15,000 cells/well (NCI—H358) or 30,000 cells/well (K562), in 30 μl HBSS with 1 mM [final] […] Assay plates were lidded and spun in a plate centrifuge at 170 g for 1 minute. Plates were then wrapped in foil and incubated in the dark for 1 hour at room temperature.
Following incubation with test compound, 10 μl of 25 mM Sodium-L-Lactate (Sigma #L7022) made up in HBSS with 1 mM [final] […] This addition was performed directly on the FLIPR Tetra platform (Molecular Devices) as part of a real-time kinetic read protocol. […] A percentage change from base-line was calculated for each test well and values normalised to control wells—treated with either DMSO (maximum assay signal) or chemistry related to that described in this patent (minimum assay signal)—before fitting concentration response curves to determine an IC50 value.

MCT4 [2] = molecular target: T1, MCT4; assay: Assay (a): lactate efflux from SK-Br-3 cells (lactate in media, 4 h); type: cell-based; parameters: a natively glycolytic human breast adenocarcinoma line predominantly expressing MCT4; host or cells: SK-Br-3; conditions: mean of at least three repeats (Example 32, marked *, two repeats), read-out: MCT4 lactate efflux pIC50 (SKBR3) (converted)
Method: Assay plates were lidded and incubated for 4 hours at 37° C. and 5% CO2.

Row | Structure (SMILES) | IC50 (MCT4 [1]) | IC50 (MCT4 [2])
1 | Cc1nc2nc(C)c(C[C@@H]3CCN(c4cnc(-c5ccc(CN6CCN(CC(=O)N(C)C)CC6)cc5)nc4)C3)c(C)n2n1 [Example 15, (R)—N,N-dimethyl-2-(4-(4-(5-(3-((2,5,7-trimethyl-[1,2,4]triazolo[1,5-a]pyrimidin-6-yl)methyl)pyrrolidin-1-yl)pyrimidin-2-yl)benzyl)piperazin-1-yl)acetamide] |  | 1 nM
2 | Cc1nc2nc(C)c(C[C@@H]3CCN(c4ccc(-c5cnc(CN6CCOCC6)nc5)cc4)C3)c(C)n2n1 [Example 28, (R)-4-((5-(4-(3-((2,5,7-trimethyl-[1,2,4]triazolo[1,5-a]pyrimidin-6-yl)methyl)pyrrolidin-1-yl)phenyl)pyrimidin-2-yl)methyl)morpholine] |  | 0.251 nM
3 | Cc1nc2nc(C)c(C[C@@H]3CCN(c4ccc(-c5ccc(CN6CCOCC6)cn5)cc4)C3)c(C)n2n1 [Example 23, (R)-4-((6-(4-(3-((2,5,7-trimethyl-[1,2,4]triazolo[1,5-a]pyrimidin-6-yl)methyl)pyrrolidin-1-yl)phenyl)pyridin-3-yl)methyl)morpholine] | 6.31 nM | 0.398 nM
4 | Cc1nc2nc(C)c(C[C@@H]3CCN(c4ccc(-c5cnc(CN6CCN(C)CC6)nc5)cc4)C3)c(C)n2n1 [Example 22, (R)-2,5,7-trimethyl-6-((1-(4-(2-((4-methylpiperazin-1-yl)methyl)pyrimidin-5-yl)phenyl)pyrrolidin-3-yl)methyl)-[1,2,4]triazolo[1,5-a]pyrimidine] |  | 1 nM
5 | COCCN1CCN(Cc2ccc(-c3ncc(N4CC[C@@H](Cc5c(C)nc6nc(C)nn6c5C)C4)cn3)cc2)CC1 [Example 18, (R)-6-((1-(2-(4-((4-(2-methoxyethyl)piperazin-1-yl)methyl)phenyl)pyrimidin-5-yl)pyrrolidin-3-yl)methyl)-2,5,7-trimethyl-[1,2,4]triazolo[1,5-a]pyrimidine] |  | 0.631 nM
6 | Cc1nc2nc(C)c(C[C@@H]3CCN(c4ccc(-c5cnc(CN6CCOCC6)cn5)nc4)C3)c(C)n2n1 [Example 7, (R)-4-((5-(5-(3-((2,5,7-trimethyl-[1,2,4]triazolo[1,5-a]pyrimidin-6-yl)methyl)pyrrolidin-1-yl)pyridin-2-yl)pyrazin-2-yl)methyl)morpholine] |  | 0.316 nM
7 | Cc1nc2nc(C)c(C[C@@H]3CCN(c4cnc(-c5ccc(CN6C[C@@H](C)N[C@@H](C)C6)cc5)nc4)C3)c(C)n2n1 [Example 14, 6-(((R)-1-(2-(4-(((3R,5S)-3,5-dimethylpiperazin-1-yl)methyl)phenyl)pyrimidin-5-yl)pyrrolidin-3-yl)methyl)-2,5,7-trimethyl-[1,2,4]triazolo[1,5-a]pyrimidine] |  | 2 nM
8 | Cc1nc2nc(C)c(C[C@@H]3CCN(c4cnc(-c5ccc(CN6CCN(C)CC6)cc5C)nc4)C3)c(C)n2n1 [Example 13, (R)-2,5,7-trimethyl-6-((1-(2-(2-methyl-4-((4-methylpiperazin-1-yl)methyl)phenyl)pyrimidin-5-yl)pyrrolidin-3-yl)methyl)-[1,2,4]triazolo[1,5-a]pyrimidine] |  | 2.51 nM
9 | Cc1nc2nc(C)c(C[C@@H]3CCN(c4ccc(-c5ncc(CN6CCN(C)CC6)cn5)cc4)C3)c(C)n2n1 [Example 25, (R)-2,5,7-trimethyl-6-((1-(4-(5-((4-methylpiperazin-1-yl)methyl)pyrimidin-2-yl)phenyl)pyrrolidin-3-yl)methyl)-[1,2,4]triazolo[1,5-a]pyrimidine] |  | 0.794 nM
10 | Cc1nc2nc(C)c(C[C@@H]3CCN(c4ccc(-c5ccc(CN6CCOCC6)nc5)cn4)C3)c(C)n2n1 [Example 1, (R)-4-((6′-(3-((2,5,7-trimethyl-[1,2,4]triazolo[1,5-a]pyrimidin-6-yl)methyl)pyrrolidin-1-yl)-[3,3′-bipyridin]-6-yl)methyl)morpholine] |  | 0.316 nM
11 | CC(=O)N1CCN(Cc2ccc(-c3ncc(N4CC[C@@H](Cc5c(C)nc6nc(C)nn6c5C)C4)cn3)cc2)CC1 [Example 17, (R)-1-(4-(4-(5-(3-((2,5,7-trimethyl-[1,2,4]triazolo[1,5-a]pyrimidin-6-yl)methyl)pyrrolidin-1-yl)pyrimidin-2-yl)benzyl)piperazin-1-yl)ethanone] |  | 0.251 nM
12 | COc1cc(CN2CCN(C)CC2)ccc1-c1ncc(N2CC[C@@H](Cc3c(C)nc4nc(C)nn4c3C)C2)cn1 [Example 12, (R)-6-((1-(2-(2-methoxy-4-((4-methylpiperazin-1-yl)methyl)phenyl)pyrimidin-5-yl)pyrrolidin-3-yl)methyl)-2,5,7-trimethyl-[1,2,4]triazolo[1,5-a]pyrimidine] |  | 3.98 nM

Results, then the molecule that gave them:

Row | IC50 (MCT4 [1]) | IC50 (MCT4 [2]) | Structure (SMILES)
13 | 31.6 nM | 0.501 nM | Cc1nc2nc(C)c(C[C@@H]3CCN(c4cnc(-c5ccc(CN6CCN(C)C[C@@H]6C)cc5)nc4)C3)c(C)n2n1 [Example 10, 6-(((R)-1-(2-(4-(((S)-2,4-dimethylpiperazin-1-yl)methyl)phenyl)pyrimidin-5-yl)pyrrolidin-3-yl)methyl)-2,5,7-trimethyl-[1,2,4]triazolo[1,5-a]pyrimidine]
14 | 31.6 nM | 3.98 nM | CCN1CCN(Cc2ccc(-c3cnc(N4CC[C@@H](Cc5c(C)nc6nc(C)nn6c5C)C4)cn3)cc2)CC1 [Example 38, (R)-6-((1-(5-(4-((4-ethylpiperazin-1-yl)methyl)phenyl)pyrazin-2-yl)pyrrolidin-3-yl)methyl)-2,5,7-trimethyl-[1,2,4]triazolo[1,5-a]pyrimidine]
15 | 10 nM | 1.58 nM | Cc1nc2nc(C)c(C[C@@H]3CCN(c4cnc(-c5ccc(CN6CCN(C)[C@@H](C)C6)cc5)cn4)C3)c(C)n2n1 [Example 48, 6-(((R)-1-(5-(4-(((S)-3,4-dimethylpiperazin-1-yl)methyl)phenyl)pyrazin-2-yl)pyrrolidin-3-yl)methyl)-2,5,7-trimethyl-[1,2,4]triazolo[1,5-a]pyrimidine]
16 | 10 nM | 0.251 nM | Cc1nc2nc(C)c(C[C@@H]3CCN(c4cnc(-c5ccc(CN6CCN(C(=O)N(C)C)CC6)cc5)cn4)C3)c(C)n2n1 [Example 55, N,N-dimethyl-4-[4-(5-{(3R)-3-[(2,5,7-trimethyl[1,2,4]triazolo[1,5-a]pyrimidin-6-yl)methyl]pyrrolidin-1-yl}pyrazin-2-yl)benzyl]piperazine-1-carboxamide]
17 |  | 0.2 nM | Cc1nc2nc(C)c(C[C@@H]3CCN(c4cnc(-c5ccc(CN6CCS(=O)(=O)CC6)cc5)cn4)C3)c(C)n2n1 [Example 45, 6-{[(3R)-1-(5-{4-[(1,1-dioxidothiomorpholin-4-yl)methyl]phenyl}pyrazin-2-yl)pyrrolidin-3-yl]methyl}-2,5,7-trimethyl[1,2,4]triazolo[1,5-a]pyrimidine]
18 |  | 2.51 nM | Cc1nc2nc(C)c(C[C@@H]3CCN(c4cnc(-c5ccc(CN6CCN(C)CC6)cn5)cn4)C3)c(C)n2n1 [Example 39, (R)-2,5,7-trimethyl-6-((1-(5-(5-((4-methylpiperazin-1-yl)methyl)pyridin-2-yl)pyrazin-2-yl)pyrrolidin-3-yl)methyl)-[1,2,4]triazolo[1,5-a]pyrimidine]
19 |  | 0.631 nM | Cc1nc2nc(C)c(C[C@@H]3CCN(c4cnc(-c5ccc(CN6CCC(CO)CC6)cc5)cn4)C3)c(C)n2n1 [Example 44, {1-[4-(5-{(3R)-3-[(2,5,7-trimethyl[1,2,4]triazolo[1,5-a]pyrimidin-6-yl)methyl]pyrrolidin-1-yl}pyrazin-2-yl)benzyl]piperidin-4-yl}methanol]
20 |  | 2.51 nM | Cc1nc2nc(C)c(C[C@@H]3CCN(c4cnc(-c5ccc(CN6CCN(C)[C@H](C)C6)cc5)cn4)C3)c(C)n2n1 [Example 33, 6-(((R)-1-(5-(4-(((R)-3,4-dimethylpiperazin-1-yl)methyl)phenyl)pyrazin-2-yl)pyrrolidin-3-yl)methyl)-2,5,7-trimethyl-[1,2,4]triazolo[1,5-a]pyrimidine]
21 |  | 0.316 nM | CC(=O)N1CCCN(Cc2ccc(-c3cnc(N4CC[C@@H](Cc5c(C)nc6nc(C)nn6c5C)C4)cn3)cc2)CC1 [Example 79, 1-[4-[[4-[5-[(3R)-3-[(2,5,7-trimethyl-[1,2,4]triazolo[1,5-a]pyrimidin-6-yl)methyl]pyrrolidin-1-yl]pyrazin-2-yl]phenyl]methyl]-1,4-diazepan-1-yl]ethanone]
22 |  | 0.794 nM | Cc1nc2nc(C)c(C[C@@H]3CCN(c4cnc(-c5ccc(CN6CCCN(C)CC6)cc5)cn4)C3)c(C)n2n1 [Example 83, (R)-2,5,7-trimethyl-6-((1-(5-(4-((4-methyl-1,4-diazepan-1-yl)methyl)phenyl)pyrazin-2-yl)pyrrolidin-3-yl)methyl)-[1,2,4]triazolo[1,5-a]pyrimidine]
23 |  | 1.26 nM | Cc1nc2nc(C)c(C[C@@H]3CCN(c4cnc(-c5ccc(CN6C[C@@H](C)N(C)[C@@H](C)C6)cc5)cn4)C3)c(C)n2n1 [Example 32, 2,5,7-trimethyl-6-(((R)-1-(5-(4-(((3R,5S)-3,4,5-trimethylpiperazin-1-yl)methyl)phenyl)pyrazin-2-yl)pyrrolidin-3-yl)methyl)-[1,2,4]triazolo[1,5-a]pyrimidine]
24 |  | 0.2 nM | Cc1nc2nc(C)c(C[C@@H]3CCN(c4cnc(-c5ccc(CN6CCC(S(C)(=O)=O)CC6)cc5)cn4)C3)c(C)n2n1 [Example 46, 2,5,7-trimethyl-6-({(3R)-1-[5-(4-{[4-(methylsulfonyl)piperidin-1-yl]methyl}phenyl)pyrazin-2-yl]pyrrolidin-3-yl}methyl)[1,2,4]triazolo[1,5-a]pyrimidine]
